For data set [1], the target named is T1, GSK3a (GST-full length GSK3a) (Homo sapiens, UniProt P49840).
T1 construct: GST-full length GSK3a [SignalChem G08-10G]; purchased SignalChem G08-10G
Kind of data set: GSK3a TR-FRET kinase inhibition assay. The class given is biochemical. In short, it runs like this: (§1)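 IC50 derived from normalized 665/615 TR-FRET signal (Tb anti-pSer641 antibody, streptavidin-d2), read after EDTA stop. Reaction: 1 nM GST-full-length enzyme, 30 min compound pre-incubation, 100 min at ambient temperature in Tris pH 7.5 with 1% DMSO, 200 nM biotinylated primed glycogen synthase peptide, ATP 2 μM to 1 mM.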
(Time-resolved FRET reads energy transfer from a long-lived donor to a nearby acceptor.)

Data set [2] concerns the target T2, GSK3b (GST-full length GSK3b) (Homo sapiens, UniProt P49841).
T2 construct: GST-full length GSK3b: [SignalChem G08-9G]; purchased SignalChem G08-9G
Kind of data set: GSK3b TR-FRET kinase inhibition assay. Type of data set: biochemical. In short, it runs like this: as §1

Data set [3] can be described thus: Human liver microsomal stability. Type of data set: in vitro ADME. The conditions noted are these: human, liver microsomes. In short, it runs like this: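 Compound incubated at 1 µM with human liver microsomes for 60 min at 37 °C, in duplicate. Percent remaining derived from compound level at 60 min relative to 0 min. Controls: microsomes with NADPH and no compound; compound with microsomes lacking NADPH.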
(Microsomes from liver hold many membrane-bound enzymes, among them those of drug oxidation.)

In a further data set the test system is MDR1. Kind of data set: MDR1/MDCK permeability assay. The class given is in vitro ADME. The conditions noted are these: dog; for Papp A→B at 120 min, 5 µM: MDCK-MDR1, pH 7.4, A to B; for Papp B→A at 120 min, 5 µM: MDCK-MDR1, pH 7.4, B to A; for efflux ratio at 120 min, 5 µM: MDCK-MDR1, pH 7.4, Papp B-A/A-B, Mean, P. Ratio(B-A/A-B) Efflux Ratio. The gist of the method: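 Confluent MDR1-MDCK monolayers (7–11 days old), compound dosed at 5 μM in HBSSg (≤1% DMSO) apically or basolaterally, pH 7.4 both sides, receiver with 1% BSA, N=2. Both sides sampled at 120 min and quantified by LC-MS/MS; Papp in each direction, efflux ratio B-A/A-B and recovery reported.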

Each structure is given as a SMILES string. Where two headings read alike, the source gives them in different places. Some results are limits rather than exact numbers.

T1 sequence (P49840 whole entry): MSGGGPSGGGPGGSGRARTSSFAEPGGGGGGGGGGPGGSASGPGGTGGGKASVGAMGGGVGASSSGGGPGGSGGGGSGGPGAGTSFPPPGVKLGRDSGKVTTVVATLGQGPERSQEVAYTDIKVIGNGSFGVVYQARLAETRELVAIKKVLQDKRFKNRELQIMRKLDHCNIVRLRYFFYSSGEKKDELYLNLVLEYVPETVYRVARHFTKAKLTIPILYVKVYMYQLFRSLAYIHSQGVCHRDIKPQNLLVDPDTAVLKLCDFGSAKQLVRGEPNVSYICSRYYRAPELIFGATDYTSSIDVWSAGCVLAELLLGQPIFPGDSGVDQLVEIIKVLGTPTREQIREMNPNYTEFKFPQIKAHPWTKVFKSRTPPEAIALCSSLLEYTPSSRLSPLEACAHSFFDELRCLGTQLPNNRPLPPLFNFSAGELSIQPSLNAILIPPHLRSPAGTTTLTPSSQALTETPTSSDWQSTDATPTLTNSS
T2 sequence (P49841 whole entry): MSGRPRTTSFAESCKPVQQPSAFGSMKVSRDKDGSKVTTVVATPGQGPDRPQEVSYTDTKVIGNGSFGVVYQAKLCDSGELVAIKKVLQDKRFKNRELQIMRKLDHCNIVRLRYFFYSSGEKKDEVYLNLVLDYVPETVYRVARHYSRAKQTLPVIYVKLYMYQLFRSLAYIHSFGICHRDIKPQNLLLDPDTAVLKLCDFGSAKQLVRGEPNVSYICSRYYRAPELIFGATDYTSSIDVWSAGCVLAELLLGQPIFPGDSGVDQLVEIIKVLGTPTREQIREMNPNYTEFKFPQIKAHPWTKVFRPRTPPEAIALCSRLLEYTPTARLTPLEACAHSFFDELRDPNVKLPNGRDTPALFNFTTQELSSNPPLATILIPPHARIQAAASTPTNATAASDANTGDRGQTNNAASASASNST

As to `CCC1(c2ccccc2)C2=C(CC(C)(C)CC2=O)Nc2ncc(C(F)(F)F)cc21` (single isomer, unassigned) [Compound 133A], the IC50 in data set [1] (10 μM ATP, read-out: GSK3a 10 μM ATP Average IC50) is not above 100 nM; in data set [1] (100 μM ATP, read-out: GSK3a 100 μM ATP Average IC50), 100 to 1000 nM; in data set [1] (1 mM ATP, Table 3, read-out: GSK3a TR-FRET 1 mM ATP Average IC50) it was 1000 to 5000 nM; in data set [2] (10 μM ATP, read-out: GSK3b 10 μM ATP Average IC50) it was not above 100 nM; in data set [2] (100 μM ATP, read-out: GSK3b 100 μM ATP Average IC50) it was 100 to 1000 nM; in data set [2] (1 mM ATP, Table 3, read-out: GSK3b TR-FRET 1 mM ATP Average IC50), 1000 to 5000 nM. Also, the half-life at 1 µM in data set [3] (Table 3, read-out: Microsome Stability (Human) (DMPK_BIIB), Mean, in vitro t1/2) was 78 min; in data set [3] (Table 4, read-out: Microsome Stability (Human) (DMPK_BIIB), Mean, in vitro t1/2), 1.4 min. For the same compound, the Papp A→B at 120 min, 5 µM is 14 ×10⁻⁶ cm/s in the data set with MDR1 (Table 3) and 13 ×10⁻⁶ cm/s with MDR1 (Table 4). Also, the Papp B→A at 120 min, 5 µM in the data set on MDR1 (Table 3) was determined as 8.2 ×10⁻⁶ cm/s; with MDR1 (Table 4), 19 ×10⁻⁶ cm/s. Further, the efflux ratio at 120 min, 5 µM is 0.56 with MDR1 (Table 3, read-out: MIDCK Permeability (MDR1-MDCK)) and 1.5 in the data set on MDR1 (Table 4, read-out: MDCK Permeability (MDR1-MDCK)).

As a reminder, the IC50 is the concentration that gives 50% inhibition. In general, Papp A→B refers to the apparent permeability from the apical to the basolateral side of a cell layer. Read a high Papp A→B as fast passage. For orientation: Papp B→A means the apparent permeability from the basolateral to the apical side of a cell layer.
